Laboratory results reported in patent publication US20220218801A1, “COMBINATION GMCI AND ATRI CANCER TREATMENT” (Candel Therapeutics, Inc., priority 2019, published 2022).

Tests used:
glioma cell line (GL261) [1] = test: double-stranded DNA breaks by H2AX Ser139 staining (confocal microscopy); assay type: cell-based; settings: 6 hours after addition of ATRi (IC50 concentration) and/or GCV 5 μg/ml, compared with untreated cells
Procedure: In another experiment, the frequency of double-stranded DNA breaks in glioma cells treated with GMCI, ATRi, or the combination. The formation of double-stranded DNA breaks was examined by staining the cells for H2AX-Ser139 as previously performed (Speranza et al. 2017).
At the start of the study (Day 0), glioma cell line (GL261; NCI-Frederick Cancer Research Tumor Repository, Frederick, Md.) is plated at a density of 12,500 cells per well of a 24 well plate containing glass coverslips. For the samples to which GMCI is administered, AdV-tk vector is added at a concentration of approximately 1.25×10^6 vp/ml (100 MOI). Starting on Day 1, to the samples being treated with GMCI, ganciclovir is added to a concentration of 5 μg/ml. In samples exposed to ATRi, starting at Day 1 AZD6738 was added at a concentration to the IC50 concentration of the drug. either in combination with GMCI or alone, as indicated. At a timepoint 6 hours after addition of the ATRi and/or GCV, the cells were fixed in 4% paraformaldehyde in phosphate buffered saline. After blocking with 5% donkey serum/0.5% Tween 20, 0.02% TX100/PBS for 1 hour at room temperature (RT), cells were washed 3 times with washing buffer (0.5% Tween 20, 0.02% TX100/PBS) and stained with H2AX Ser139 antibody (1:100). The next day the samples were washed and incubated for 2 hours with a fluorescently-tagged secondary antibody plus Hoechst 33342. […]

glioma cell line (GL261) [2] = test: glioma cell viability assay (Presto Blue, fluorescence); assay type: cell-based
Procedure: The combination of GMCI and ATRi (AZD6738) is examined for anti-cancer activity. A schematic of an experimental design to test the effect of combining of GMCI and ATR inhibitor combination on glioma cells is illustrated in FIG. 1. At the start of the study (Day 0), a glioma cell line (GL261; NCI-Frederick Cancer Research Tumor Repository, Frederick, Md.) is plated at a density of 5000 cells per well. For the samples on which GMCI is administered, on the following day (Day 1) AdV-tk vector is added at a concentration of approximately […] (100 MOI). Starting on Day 2, to the samples being treated with GMCI, ganciclovir is added to a concentration of 5 μg/ml. […] At Day 4, cell viability is assayed by the addition of a vial dye such as Presto Blue assay (Life Technologies) and quantified by fluorescence spectrometry.
Synergism was analyzed by the Combination Index (CI) calculation with the formula of Chou-Talalay (Chou 2010; Ting-Chao Chou 1984). CI values above 1.00 indicate antagonistic effect of combination agents, a CI of 1.00 indicates an additive effect, and CI values below 1.00 indicate synergistic effect.

Structure (SMILES): C[C@@H]1COCCN1c1cc(C2([S@](C)(=N)=O)CC2)nc(-c2cc[nH]c3nccc2-3)n1 [AZD6738]
- double-stranded DNA breaks / H2AX(Ser139) staining (glioma cell line (GL261) [1]): Double-stranded DNA breaks occur
- double-stranded DNA breaks / H2AX(Ser139) staining (glioma cell line (GL261) [1]; listed as ATRi): large increase in H2AX staining
- cell viability (fluorescence normalized to no treatment) (glioma cell line (GL261) [2]; GL261, single agents, AZD6738 at IC50 (1 μM) or ½ IC50 (0.5 μM) from Day 2, GMCI = AdV-tk 100 MOI + ganciclovir 5 μg/ml, read at Day 4): cytotoxic activity
- IC50 (glioma cell line (GL261) [2]; Mus musculus, GL261 glioma cells, read-out: IC50 concentration): 1 µM
